Data as given in patent US20250019385A1, “SPIROCYCLIC ANNULATED 2-AMINO-3-CYANO THIOPHENES AND DERIVATIVES FOR THE TREATMENT OF CANCER” (Boehringer Ingelheim International GmbH, priority 2023, published 2025).
In brackets after ≈: the same amount, converted by molar mass. Like-named read-outs stand apart in the source and are kept apart here.

Columns and labels:
NCI-H727 cells = assay: NCI-H727 CTG proliferation assay (120 h) (lung cancer, G12V); type: cell-based; details: Homo sapiens
Description: (§1) NCI-H727 cells (ATCC No. CRL-5815) are dispensed into black 384-well plates, flat and clear bottom (Greiner, PNr. 781091) at a density of 500 cells per well in 60 μl RPMI ATCC-Formulation (PAN P04-18047)+10% FCS (fetal calf serum, HyClone, SH30084.03). Cells are incubated overnight at 37° C. in a humidified tissue culture incubator at 5% CO2. Compounds (10 mM stock in DMSO) are added at logarithmic dose series using the ECHO acoustic liquid handler system (Beckman Coulter), normalizing for added DMSO and including DMSO controls. All compound treatments are performed in technical duplicates. For the TO time point measurement, untreated cells are analyzed at the time of compound addition. Plates are incubated for 120 h, and cell viability is measured using CellTiter-Glo luminescent cell viability reagent (Promega product code G7570). Viability (stated as percent of control) is defined as relative luminescence units RLU of each well divided by the RLU of cells in DMSO controls. IC50 values are determined from viability measurements by non-linear regression using a four-parameter model.
(§2) IC50 values of representative compounds according to the invention measured with these assays in the indicated cell lines are presented in Table 46.

Ba/F3 cells KRAS G12V = assay: Ba/F3 proliferation assay (KRAS G12V); type: cell-based; details: Mus musculus, BaF3, 72 h, AlamarBlue viability
Outline: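 Ba/F3 cells retrovirally transduced with KRAS G12 mutant, puromycin-selected, grown IL-3-independent; seeded in RPMI-1640 + 10% FCS without IL-3. Logarithmic compound dose series in duplicate, 72 h at 37° C., AlamarBlue fluorescence as % of DMSO control; IC50 from four-parameter non-linear regression.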

MKN1 cells = assay: MKN1 CTG proliferation assay (120 h) (gastric cancer, wt amplified); type: cell-based; details: Homo sapiens, MKN-1
Description: as §1, with “MKN1” for “NCI-H727”, “(JCRB0252)” for “(ATCC No. CRL-5815)”, “200” for “500”, “RPMI-1640” for “RPMI”, “(Gibco #A10491)+10%” for “(PAN P04-18047)+10%”
as §2

[1] = Plasma protein binding assay (PPB), equilibrium dialysis; type: in vitro ADME; details: bovine, 10% FCS in PBS, read-out: PPB 10% FCS (% fu)
Description: Binding of test compounds to plasma was determined using equilibrium dialysis (ED) and quantitative mass spectrometry interfaced with liquid chromatography (LC-MS). In brief, ED was performed with dialysis devices consisting of two chambers separated by a semipermeable membrane with a molecular weight cut-off of 5-10 kg/mol. One chamber was filled with 10% FCS in PBS containing 1-10 μmol/L test compound and the other chamber was filled with phosphate-buffer saline (PBS) with or without dextran. The dialysis chamber was incubated for 3-5 hours at 37° C. After incubation, protein was precipitated from aliquots of each chamber and the concentration of test compound in the supernatant of the plasma-containing compartment (cserum) and of the buffer-containing compartment (cbuffer) was determined by LC-MS. The fraction of unbound test compound (not bound to plasma) (f) was calculated according to the following equation: […]

[2] = Solubility measurement (DMSO solution precipitation method); type: physicochemical; details: aqueous buffer, kinetic from dmso stock
Outline: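 A 10 mM DMSO stock was diluted to 250 μM final in McIlvaine buffer at pH 4.5 or 6.8, then shaken 24 h at ambient temperature. After filtering off precipitate, filtrate concentration was quantified by LC-UV against a fully dissolved reference in acetonitrile/water (1:1).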

[3] = McIlvaine buffer pH 4.5, 24 h, read-out: solubility pH 4.5
[4] = McIlvaine buffer pH 6.8, 24 h, read-out: solubility pH 6.8

Row | Structure (SMILES) | IC50 (NCI-H727 cells) | IC50 (Ba/F3 cells KRAS G12V) | IC50 (MKN1 cells) | fraction unbound [1] | solubility at 24 h [2, 3] | solubility at 24 h [2, 4]
1 | C[C@H](Oc1nc(-c2onc3c2CCC[C@@]32CCCc3sc(N)c(C#N)c32)nc2c1n(C)c(=O)n2[C@@H]1CCOC1)[C@@H]1C[C@H](F)CN1C [I-27] | 21 nM | 13 nM | 126 nM | 0.15 | > 153 µg/mL | 9 µg/mL (≈ 13.9 µM)
2 | C[C@H](Oc1nc(-c2onc3c2CCC[C@@]32CCCc3sc(N)c(C#N)c32)nc2c1n(C)c(=O)n2[C@@H]1CCOC1)[C@@H]1C[C@@H]2C[C@@H]2N1C [I-28] | 27 nM | 12 nM | 134 nM | 0.05 | > 166 µg/mL | 16 µg/mL (≈ 24.9 µM)
3 | C[C@H](Oc1nc(-c2onc3c2CCC[C@@]32CCCc3sc(N)c(C#N)c32)nc2c1n(C)c(=O)n2[C@@]12COC[C@@H]1C2)[C@@H]1CCCN1C [I-29] | 1 nM | 1 nM | 5 nM | 0.39 | > 161 µg/mL | > 165 µg/mL
4 | CCn1c(=O)n([C@@H]2CCCOC2)c2nc(-c3onc4c3CCC[C@@]43CCCc4sc(N)c(C#N)c43)nc(O[C@@H](C)[C@@H]3CCCN3C)c21 [I-30] | 6 nM | 5 nM | 39 nM | 0.08 | > 154 µg/mL | 88 µg/mL (≈ 134 µM)
5 | CO[C@H]1C[C@@H](n2c(=O)n(C)c3c(O[C@@H](C)[C@@H]4CCCN4C)nc(-c4onc5c4CCC[C@@]54CCCc5sc(N)c(C#N)c54)nc32)C1 [I-31] | 38 nM | 23 nM | 987 nM | 0.09 | > 158 µg/mL | > 148 µg/mL
6 | CC(C)n1c(=O)n([C@@H]2CCOC2)c2nc(-c3onc4c3CCC[C@@]43CCCc4sc(N)c(C#N)c43)nc(O[C@@H](C)[C@@H]3CCCN3C)c21 [I-32] | 4 nM | 13 nM | 429 nM | 0.07 | > 155 µg/mL | 63 µg/mL (≈ 95.6 µM)
7 | CCn1c(=O)n([C@@H]2CCCOC2)c2nc(-c3onc4c3CCC[C@@]43CCCc4sc(N)c(C#N)c43)nc(OC[C@@]34CCCN3C[C@H](F)C4)c21 [I-33] | 899 nM | 739 nM | 4150 nM | 0.02 | > 163 µg/mL | 8 µg/mL (≈ 11.6 µM)
8 | CCn1c(=O)n([C@@H]2CCCOC2)c2nc(-c3onc4c3CCC[C@@]43CCCc4sc(N)c(C#N)c43)nc(OCC34CCCN3CCC4)c21 [I-34] | 282 nM | 553 nM | 3400 nM | 0.07 | > 158 µg/mL | > 148 µg/mL
9 | CCn1c(=O)n([C@@H]2CCCOC2)c2nc(-c3onc4c3CCC[C@@]43CCCc4sc(N)c(C#N)c43)nc(O[C@@H](C)C34CCCN3CCC4)c21 [I-36] | 21 nM | 18 nM | 239 nM | 0.06 | 135 µg/mL (≈ 197 µM) | 94 µg/mL (≈ 137 µM)
10 | C[C@H](Oc1nc(-c2onc3c2CCC[C@@]32CCCc3sc(N)c(C#N)c32)nc2c1N(C)C(=O)CN2[C@@H]1CCOC1)[C@@H]1CCCN1C [I-37] | 181 nM | 127 nM | 319 nM | 0.13 | > 151 µg/mL | 113 µg/mL (≈ 175 µM)
11 | C[C@H](Oc1nc(-c2onc3c2CCC[C@@]32CCCc3sc(N)c(C#N)c32)nc2c1ncn2[C@@H]1CCOC1)[C@@H]1CCCN1C [I-38] | 34 nM | 20 nM | 32 nM | 0.34 | > 144 µg/mL | > 139 µg/mL
12 | Cc1nc2c(O[C@@H](C)[C@@H]3CCCN3C)nc(-c3onc4c3CCC[C@@]43CCCc4sc(N)c(C#N)c43)nc2n1[C@@H]1CCOC1 [I-39] | 28 nM | 12 nM | 29 nM | 0.24 | > 147 µg/mL | > 137 µg/mL
13 | Cc1cc2c(O[C@@H](C)[C@@H]3CCCN3C)nc(-c3onc4c3CCC[C@@]43CCCc4sc(N)c(C#N)c43)nc2n1[C@@H]1CCOC1 [I-40] | 17 nM | 14 nM | 217 nM | 0.09 | > 124 µg/mL | 44 µg/mL (≈ 71.7 µM)
14 | Cc1cn([C@@H]2CCOC2)c2nc(-c3onc4c3CCC[C@@]43CCCc4sc(N)c(C#N)c43)nc(O[C@@H](C)[C@@H]3CCCN3C)c12 [I-41] | 107 nM | 78 nM | 696 nM | 0.35 | > 137 µg/mL | 32 µg/mL (≈ 52.1 µM)
15 | Cc1nn([C@@H]2CCOC2)c2nc(-c3onc4c3CCC[C@@]43CCCc4sc(N)c(C#N)c43)nc(O[C@@H](C)[C@@H]3CCCN3C)c12 [I-42] | 39 nM | 11 nM | 81 nM | 0.11 | > 145 µg/mL | 112 µg/mL (≈ 182 µM)
16 | C[C@H](Oc1nc(-c2onc3c2CCC[C@@]32CCCc3sc(N)c(C#N)c32)nc2c1cnn2[C@@H]1CCOC1)[C@@H]1CCCN1C [I-43] | 36 nM | 18 nM | 155 nM | 0.11 | > 147 µg/mL | 113 µg/mL (≈ 188 µM)
17 | C[C@@H]1COC[C@H](n2c(=O)n(C)c3c(O[C@@H](C)[C@@H]4CCCN4C)nc(-c4onc5c4CCC[C@@]54CCCc5sc(N)c(C#N)c54)nc32)C1 [I-44] | 2 nM | 2 nM | 10 nM | 0.1 | > 157 µg/mL | 2 µg/mL (≈ 3.04 µM)
18 | C[C@H](Oc1nc(-c2onc3c2CCC[C@@]32CCCc3sc(N)c(C#N)c32)nc2c1n(C)c(=O)n2[C@@]12COC[C@@H]1C2)[C@@H]1CC[C@H](C)N1C [I-45] | 1 nM | 1 nM | 11 nM | 0.2 | > 135 µg/mL | 85 µg/mL (≈ 129 µM)
19 | CO[C@@H]1C[C@@H]([C@H](C)Oc2nc(-c3onc4c3CCC[C@@]43CCCc4sc(N)c(C#N)c43)nc3c2n(C)c(=O)n3[C@@]23COC[C@@H]2C3)N(C)C1 [I-46] | 2 nM | 1 nM | 9 nM | 0.32 | > 150 µg/mL | 67 µg/mL (≈ 99.6 µM)
20 | C[C@H](Oc1nc(-c2onc3c2CCC[C@@]32CCCc3sc(N)c(C#N)c32)nc2c1COC[C@]21CCOC1)[C@@H]1CCCN1C [I-54] | 2 nM | 1 nM | 7 nM | 0.34 | > 145 µg/mL | > 142 µg/mL
21 | C[C@H](Oc1nc(-c2onc3c2CCC[C@@]32CCCc3sc(N)c(C#N)c32)nc2c1CN(C1COC1)C[C@]21CCOC1)[C@@H]1CC[C@H](C)N1C [I-55] | 3 nM | 1 nM | 18 nM | 0.2 | > 159 µg/mL | > 137 µg/mL
22 | C[C@H](Oc1nc(-c2onc3c2CCC[C@@]32CCCc3sc(N)c(C#N)c32)nc2c1CN(C1COC1)C[C@]21CCOC1)[C@@H]1CCCN1C [I-56] | 4 nM | 2 nM | 15 nM | 0.3 | > 157 µg/mL | > 147 µg/mL
